Measured values taken from PMC6095874, “Discovery of cationic nonribosomal peptides as Gram-negative antibiotics through global genome mining” (Nature Communications, 2018).
Values after ≈ are worked out from the molar mass of the structure shown. Where two headings read alike, the source gives them in different places. Where a SMILES comes first, the peptide text is derived from it. Bridges are numbered along the chain shown (N, C = ends). [ ]: non-standard residue; d: D form. The star is where a group is joined. ξ: configuration not given here. Hexanoyl(4ξ-Me) = CCC(C)CCC(=O)*; dOrn = NCCC[C@@H](N)C(=O)O; Orn = NCCC[C@H](N)C(=O)O

How the values were obtained:
Gram-negative bacteria = assay type: cell-based
Protocol: (§1) MIC was determined by broth microdilution according to CLSI guidelines. The test medium for most species was Mueller–Hinton broth (MHB). Bacteria were grown overnight to early stationary phase and adjusted in MHB to 5.0 × 10^5 c.f.u. mL^−1 in the wells of 96-well microtiter plates (Falcon® 96-Well Flat-Bottom Microplate, Tissue Culture-Treated), mixed with varying concentrations of test compounds and incubated at 37 °C for 24 h. Cell growth was evaluated by measuring the optical density at 595 nm (Thermo Scientific Multiskan FC multiplate photometer) (Waltham, MA, USA), and the MIC was defined as the lowest compound concentration at which no bacterial growth was observed. MHBs containing 10% fetal bovine serum (Gibco), 21 mM MgCl, or 1.0 mg mL^−1 LPS (lipopolysaccharides from E. coli O55:B5, Sigma-Aldrich) was used to test their inhibitory effects.

[1] = tested on: Pseudomonas aeruginosa PAO1; assay type: cell-based; settings: Supplementary Table 1; Pa = Pseudomonas aeruginosa PAO1
Protocol: as §1

[2] = tested on: Staphylococcus aureus (MRSA); assay type: cell-based; settings: 24 h
Protocol: as §1

[3] = tested on: K. pneumoniae NRRL-B-3521; assay type: cell-based, Klebsiella pneumoniae; settings: NRRL-B-3521, 24 h
Protocol: as §1

E. cloacae NRRL-B-425 = assay type: cell-based, Enterobacter cloacae; settings: NRRL-B-425, 24 h
Protocol: as §1

E. coli TOP10 cells = experiment: Time-kill assay; assay type: cell-based, Escherichia coli
Protocol: An overnight culture of E. coli TOP10 cells was diluted 1:10,000 in MHB and incubated at 37 °C with agitation at 180 rpm for 2 h (early exponential). The bacteria were then challenged with brevicidine (20 μg mL^−1), laterocidine (20 μg mL^−1), or polymyxin B (10 μg mL^−1) at ten times the MIC at room temperature without shaking. An untreated sample of cells was used as a negative control. At intervals, 10 μL aliquots were removed, centrifuged at 10,000 × g for 1 min and resuspended in 1.0 mL of sterile PBS. Tenfold serially diluted suspensions were plated on MHB agar plates and incubated at 37 °C overnight. Colonies were counted and the number of c.f.u. per mL was calculated. For analysis of lysis, 300 μL of culture (OD600 = 1.0) were treated with antibiotics at ten times the MIC for 24 h. Experiments were performed in triplicate.

[4] = Peptide binding to LPS by isothermal titration calorimetry; parameters: species or system Escherichia coli; settings: 37 °C
Protocol: Microcalorimetric experiments of peptide binding to LPS were performed on an MCS isothermal titration calorimeter (Microcal, Northampton, MA) at 37 °C. LPS was prepared as a 50 µM aqueous suspension in 20 mM HEPES buffer (pH 7.0) by suspension, sonication, and temperature cycling between 5 and 70 °C. This suspension was stored at 4 °C overnight prior to use. Aliquots of 100 µM peptide solutions (brevicidine and polymyxin B) were prepared in the same buffer and all solutions were degassed prior to use by stirring under vacuum for 5 min at 37 °C. After thermal equilibration, 5 µL aliquots of the peptide solution were added every 3 min into the lipid-containing cell at 37 °C with constant stirring. The change in heat during the titration steps was registered in real time and raw data were processed using the Origin® 7 software provided with the instrument. In control experiments, the corresponding peptide solution (or LPS solution) was injected into the buffer without LPS (or without peptide).

E. coli ATCC 25922 = experiment: Neutropenic mouse thigh infection model; assay type: in vivo
Protocol: Given the low risk of resistance and the attractive mode of action of 1–2, an animal efficacy study was then performed in a mouse thigh model. Mice were intramuscularly infected with 1.50 × 10^6 c.f.u. of E. coli ATCC 25922. Two hours post infection, brevicidine (30 mg kg^−1) or laterocidine (15 mg kg^−1) was subcutaneously injected at two doses. […] In particular, compound 1 was highly efficacious in mice infected with E. coli and caused a 5 log10 reduction in c.f.u. in the thigh compared to the vehicle control after 24 h (Fig. 4f).
In vivo activities of brevicidine and laterocidine were tested using the mouse thigh infection model. Animal studies were performed by Pharmacology Discovery Services Taiwan Ltd. in general accordance with standard guidelines on animal welfare[38] in an AAALAC-accredited facility. The protocol was reviewed and approved by the Institutional Animal Care and Use Committee. Groups of five female-specific pathogen-free ICR (CD-1) mice weighing 22 ± 2 g (~5 weeks of age) were used. Animals were immunosuppressed with two intraperitoneal injections of cyclophosphamide, the first at 150 mg kg^−1 4 days before infection (day −4) and the second at 100 mg kg^−1 1 day before infection (day −1). On day 0, animals were inoculated intramuscularly (0.1 mL per thigh) in the right thigh with an E. coli ATCC 25922 suspension. Vehicle (10% DMSO, 1% Tween 80, 0.9% NaCl) and antibiotics were then subcutaneously injected 2 and 8 h later. Due to the limited availability of compounds 1–2, only one concentration of 1 (30 mg kg^−1) or 2 (15 mg kg^−1) was used in the present study. Precisely 26 h after inoculation, animals were euthanized by CO2 asphyxiation before their right thigh muscles were harvested. The removed muscles were homogenized in 5 mL of PBS, pH 7.4, with a Polytron homogenizer. Homogenates in the amount of 0.1 mL were used for serial tenfold dilutions and plated onto a nutrient agar medium for colony count (in c.f.u. g^−1) determination. No randomization or blinding was necessary for the animal infection models, and no samples were excluded.

rabbit erythrocytes = settings: concentrations up to 128 μg mL^−1, 2% (v/v) rabbit erythrocytes in PBS, 1 h, 37 °C, absorbance 570 nm, vs 10% Triton X-100
Protocol: Hemolytic activity was determined with red blood cells freshly isolated from healthy rabbits. […] The cells were incubated for 1 h at 37 °C and centrifuged for 5 min at 10,000 × g. The supernatant was transferred to a 96-well plate and the absorbance was measured at a wavelength of 570 nm with a Thermo Scientific Multiskan FC multiplate photometer. The absorbance relative to the positive control, which was treated with 10% Triton X-100, was defined as the percentage of hemolysis.

Human HeLa cells = settings: concentrations up to 128 μg mL^−1, 48 h, 37 °C, MTT, absorbance 570 nm
Protocol: Human HeLa cells were used in the assay. Ninety μL of 1 × 10^5 mL^−1 cells were placed into the wells of 96-microwell plates. After 12 h, 10 μL of a medium containing test compounds at various concentrations were added to the cells which were then incubated at 37 °C for 48 h. Afterward, the supernatant was removed and 20 μL of MTT (3-(4,5-Dimethylthiazol-2-yl)-2,5-Diphenyltetrazolium Bromide) (2.5 mg mL^−1) in PBS were added to each well. After incubation at 37 °C for 3 h, 80 μL of dimethyl sulfoxide (DMSO) were added to each well and incubated for an additional 15 min. The absorbance was then measured at 570 nm with a Thermo Scientific Multiskan FC multiplate photometer.

## CCC(C)CCC(=O)N[C@H](CC(N)=O)C(=O)N[C@H](Cc1ccc(O)cc1)C(=O)N[C@H](Cc1c[nH]c2ccccc12)C(=O)N[C@H](CCCN)C(=O)N[C@@H](CCCN)C(=O)NCC(=O)N[C@H](CCCN)C(=O)N[C@@H](Cc1c[nH]c2ccccc12)C(=O)N[C@@H]1C(=O)N[C@@H]([C@@H](C)CC)C(=O)NCC(=O)N[C@@H](CO)C(=O)O[C@@H]1C (some centres unmarked) [Compound 1, brevicidine] ({Hexanoyl(4ξ-Me)}-[dN][dY][dW][dOrn][Orn]G[dOrn]WTIGS; ester 9-C)
Gram-negative bacteria; 24 h
  MIC values against Gram-negative bacteria: 0.66 to 10.5 µM
Gram-negative bacteria; range over Gram-negative strains incl. P. aeruginosa and colistin-resistant E. coli
  MIC values against Gram-negative bacteria: 1 to 16 µg/mL
[1]
  MIC, Pa: 1 µg/mL (≈ 0.658 µM)
[2]
  MIC: >64 µg/mL
[3]
  MIC: 4 µg/mL (≈ 2.63 µM)
E. cloacae NRRL-B-425
  MIC: 2 µg/mL (≈ 1.32 µM)
E. coli TOP10 cells; as revealed by growth kinetics, time-kill assay and lysis assay
  bactericidal action against E. coli: bactericidal
E. coli TOP10 cells; ten times the MIC, early exponential cells, room temperature, c.f.u. counts, triplicate
  cell viability in time-kill assay: significant reduction after 30 min
[4]; 20 mM HEPES pH 7.0
  binding to LPS (ITC): strong binding to LPS
[4]; ITC, 50 µM LPS in 20 mM HEPES pH 7.0, 100 µM peptide, read-out: dissociation constant Kd for LPS
  Kd: 6.5 µM
E. coli ATCC 25922; 30 mg kg^−1 subcutaneous at 2 and 8 h post infection, neutropenic ICR mice (n = 5), after 24 h
  reduction in c.f.u. in the thigh compared to the vehicle control: 5 log10
E. coli ATCC 25922; brevicidine 30 mg kg^−1 twice s.c., five mice, after 26 h, Mann–Whitney P < 0.01
  viable bacteria in thigh: reduced number of viable bacteria
Rabbit erythrocytes
  lysis of erythrocytes (hemolysis): neither caused the lysis of erythrocytes
Human HeLa cells
  toxicity against the human cell line HeLa: nor showed significant toxicity
